Source: PubChem BioAssay (NCI)
“And” between values parts separate entries of the source, which are not always exact repeats. Equal entries are not always repeated.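 Tested at 5 concentrations; 48 h exposure; 96-well plates; endpoints linearly interpolated, else capped at highest concentration. At the GI50, growth is halved. At the TGI there is no net growth.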 Where a SMILES comes first, the peptide text is derived from it. [ ]: non-standard residue; d: D form. The star is where a group is joined. Decanoyl = CCCCCCCCCC(=O)*; Leu(ol) = CC(C)C[C@H](N)CO; Iva = CC[C@](C)(N)C(=O)O; Aib = CC(C)(N)C(=O)O

Test system: MDA-MB-468 breast
Assay: inhibition of tumour cell growth, NCI panel, 48 h

SMILES | GI50 | TGI
C1=C/COCc2cc(ccc2OCCN2CCCC2)Nc2nccc(n2)-c2cccc(c2)COC/1 | 0.396 µM and 0.562 µM | 1.48 µM and 2.01 µM
COc1ccc(-c2c(-c3cc(OC)c(OC)c(OC)c3)nc3sc(C4CC4)nn23)cc1OC | 1.9 µM | 31.4 µM
Oc1ccc(CSc2nnc(-c3ccc(Cl)cc3)n2-c2ccccc2)c2cccnc12 | 1.19 µM | > 100 µM
COc1cc(/C=C/C(=O)c2ccc(Nc3nc(Nc4ccc(F)cc4)nc(Nc4ccc(Cl)cc4)n3)cc2)cc(OC)c1OC | 1.34 µM | 3.75 µM
NS(=O)(=O)c1ccc(N=Cc2c(O)[nH]c3ccc4ncsc4c23)cc1 | 0.488 µM and 0.472 µM | 1.14 µM and 1.08 µM
C=C1c2c(C)nn(-c3ccc(OC)cc3)c2N(C)C23C[C@@H]1C1(C)c4c(C)nn(-c5ccc(OC)cc5)c4N(C)C(C)(C[C@H]12)C3 (some centres undefined) | 2.5 µM | 12.8 µM
CCCCCCCCCC(=O)NC(C)(C)C(=O)N1CCC[C@H]1C(=O)N[C@@H](CC(C)C)C(=O)N[C@@](C)(CC)C(=O)N[C@@H](CCC(N)=O)C(=O)N[C@H](CCC(N)=O)C(=O)NC(C)(C)C(=O)NC(C)(C)C(=O)N[C@@H](CCC(N)=O)C(=O)N[C@H](CC(C)C)C(=O)N[C@H](CO)CC(C)C (Decanoyl-[Aib]PL[Iva]Q[dQ][Aib][Aib]Q[dL][Leu(ol)]) | 1.79 µM | 3.34 µM
C=CCn1c(SCC(=O)Nc2ccc(C(=O)/C=C/c3cc(OC)c(OC)c(OC)c3)cc2)nnc1-c1ccc(Cl)cc1 | 3.47 µM | 26.6 µM
CC1(C)CCC2(CC1)N[C@@H](C(=O)N[C@@H]1CC[C@@H](C(N)=O)OC1)[C@H](c1ccnc(Cl)c1F)[C@]21C(=O)Nc2cc(Cl)ccc21 | 2.24 µM | 5.63 µM
COc1cccc2c1C(=O)c1c(O)c3c(c(O)c1C2=O)CC(O)(/C(C)=N/NC(=O)CCCCC(=O)N/N=C(\C)C1(O)Cc2c(O)c4c(c(O)c2C(OC2CC(N)C(O)C(C)O2)C1)C(=O)c1c(OC)cccc1C4=O)CC3OC1CC(N)C(O)C(C)O1 (centres undefined) | 0.0935 µM | 0.251 µM
COc1ccc(-c2nnc(COc3ccc(Cl)cc3Cl)o2)cc1OC | 7.32 µM | 54.4 µM
C=C1C(=O)O[C@H]2[C@H]1CC/C(CNC(=O)c1cccc3ccccc13)=C\CC[C@@]1(C)O[C@@H]21 | 1.38 µM | 4.24 µM
COc1ncc(-c2ccc3nccc(C#CCCCCC(=O)O)c3c2)cc1NS(=O)(=O)c1ccc(F)cc1F | 0.132 µM | 1.9 µM
Cc1c([C@H](C(Cl)Cl)[C@H](O)[C@H]2C[C@H](C)C(=O)O2)ccc2c1C(=O)[C@H]1[C@H]2C[C@@H](Br)[C@@]23O[C@@H](CO[C@H]2O)CC13C (some centres undefined) | 0.129 µM | 0.922 µM
CCCSc1ccc2nc(NC(=O)OC)[nH]c2c1 | 0.21 µM | 0.702 µM
O=C(Nc1ccc(-n2cc(-c3ccncc3)c(-c3ccc(O)c(Cl)c3)n2)cc1)c1cc(C(F)(F)F)cc(C(F)(F)F)c1 | 6.06 µM | > 25 µM
CCOC(=O)c1ccc2c(c1)[n+](=O)c(C(=O)C1CCCS1)c(C(F)(F)F)n2[O-] (centres undefined) | 0.25 µM | 0.967 µM
CCOc1ccc(C(=O)Nc2ncc(Cc3ccc(F)cc3)s2)cc1 | 0.266 µM | > 100 µM
N#Cc1c(-c2ccc(Cl)cc2)csc1NC(=O)Nc1ccc(Cl)c(C(F)(F)F)c1 | 0.186 µM | 1.51 µM

SMILES | GI50 | TGI
Cn1c(=O)n(CCCO)c(=O)c2c1nc(Oc1cccc(OC(F)(F)F)c1)n2Cc1ccc(Cl)cc1 | 12.9 µM | 29.9 µM
O=C(NC(=S)Nc1ccccn1)c1ccccc1 | 12.5 µM | > 100 µM
COC(=O)[C@@H](C)C[C@H](Cc1ccccc1)NC(=O)c1cccc([C@@H](C[C@H](C(C)C)N(C)C(=O)[C@@H](NC(=O)[C@H]2CCCCN2C)C2CC2)OC(C)=O)n1 | 0.00333 µM | 33.3 µM and > 100 µM
O=c1c2c([nH]c3ccccc13)CCCC2 | 16.7 µM | > 100 µM
C#Cc1ccc(NC(=O)c2ccc(/C=C/C(=O)c3nccn3C)cc2)c(F)c1 | 1.24 µM | 4.42 µM
O=[N+]([O-])c1ccc(C(Br)c2ccc([N+](=O)[O-])cc2)cc1 | 11.5 µM | 25.9 µM
O=C(Nc1cccc(-n2ccc3c(NC(=O)c4ccccc4)nccc32)c1)Nc1ccc(Cl)c(C(F)(F)F)c1 | 0.257 µM | 3.36 µM
O=C(/C=C/c1cc2ccccc2[nH]c1=O)c1ccc(Cl)cc1 | 17.4 µM | 35.2 µM
C=C1CC2(OC1=O)C(=O)N(C)c1ccc(I)cc12 (centres undefined) | 0.537 µM | 2.76 µM
C[CH2][Sn]([CH2]C)([O]C(=O)c1cccc(OC)c1)[O][Sn]([CH2]C)([CH2]C)[O]C(=O)c1cccc(OC)c1 | 5.53 µM | 20.8 µM
COc1cc(/C=C/C(=O)Nc2ccc3c(c2)/C(=C\c2cccn2C)C(=O)N3)cc(OC)c1OC | 3.39 µM | 25.2 µM
COc1ccc2c(c1)oc1c(C)c3c(c(C)c12)C(=O)N(N)C3=O | > 100 µM | > 100 µM
COC1=CC(=O)c2c(ccc3ncnc(N)c23)C1=O | 1.14 µM | 2.77 µM
N#C/C(=C\c1cn(Cc2ccccc2)c2ccccc12)C(=O)Nc1ncc(Cc2ccccc2Cl)s1 | 1.84 µM | 4.68 µM
CCNCCCn1c2c(c3ccc(F)cc3c1=O)C(=O)c1cc(OC)cnc1-2 | 0.139 µM | 0.312 µM
Brc1ccc(SCN(CSc2ccc(Br)cc2)Cc2ccccc2)cc1 | 6.45 µM | 30.6 µM
Nc1n[n+](=O)c2ccccc2n1O | 19.6 µM | 67 µM
COc1cc(C(=O)c2c(-c3ccccc3)oc3c(OC)cccc23)cc(OC)c1O | 0.936 µM | 7.22 µM
